Source: patent publication US20250353873A1, “COMPOUNDS AND METHODS FOR MODULATING APOE EXPRESSION” (Ionis Pharmaceuticals, Inc., priority 2024, published 2025)
Strand notation (5' to 3'): a small letter for the sugar, then the base; units joined by * are phosphorothioate-linked, units joined directly phosphodiester-linked; [ ] holds rarer units or linkages, { } end groups; capitals alone tell only the bases. [ms] = mesyl phosphoramidate linkage; e = 2'-O-(2-methoxyethyl) (MOE); k = constrained ethyl (cEt); [5mC] = 5-methylcytosine; d = 2'-deoxy (DNA)

What was measured:
human APOE RNA [1] = assay: Dose-dependent reduction of human APOE RNA in HepG2 cells, electroporation, 20,000 cells per well, average of GAPDH- and PPIA-normalized results (Example 4, Table 12); format: cell-based; conditions: HepG2, 20,000 cells per well; for IC50: approximately 24 hours
Method: HepG2 cells plated at a density of 20,000 cells per well were treated by electroporation with various concentrations of modified oligonucleotide as specified in the tables below. […] APOE RNA levels were measured using the human primer probe set RTS3073 (described herein above). APOE RNA levels were normalized to human GAPDH, and human PPIA. Human GAPDH was amplified using human primer probe set RTS104 (described herein above). Human PPIA was amplified using human primer probe set mk_cycloA_2nd (described herein above) The average of the GAPDH-normalized results and the PPIA-normalized results are presented in the table below as percent APOE RNA, relative to the amount of APOE RNA in untreated control cells (% UTC). The half maximal inhibitory concentration (IC50) of each modified oligonucleotide was calculated in GraphPad Prism 10 (GraphPad Software, San Diego, CA) and is also presented in the table below.

human APOE RNA [2] = assay: Activity in APOE C57BL/6NTac-Apoeem7250 knock-in mice, single ICV bolus, 4 weeks (Example 10); format: in vivo; conditions: single ICV bolus 300 μg, 4 weeks post treatment, normalized to mouse Ppia
Summary of the method: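 Knock-in mice (2–4 per group) received one 300 μg ICV bolus of oligonucleotide or PBS. After four weeks, human APOE RNA in cortex and spinal cord measured by RT-qPCR (primer probe set RTS3073), normalized to mouse Ppia, expressed as % of PBS controls.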

human APOE RNA [3] = assay: Activity in APOE C57BL/6NTac-Apoeem7250 knock-in mice, single ICV bolus, 8 weeks (Example 11); format: in vivo; conditions: single ICV bolus 300 μg, 8 weeks post treatment, normalized to mouse Ppia
Summary of the method: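 Human APOE knock-in C57BL/6NTac mice given one ICV bolus of 300 μg oligonucleotide; PBS-dosed group as control. At 8 weeks, cortex and spinal cord RNA measured by qRT-PCR (human probe RTS3073), normalized to mouse Ppia, expressed as % of PBS control.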

human APOE RNA [4] = assay: Potency (dose response, ED50) in APOE C57BL/6NTac-Apoeem7250 knock-in mice, 4 weeks (Example 14); format: in vivo; conditions: for ED 50 (μg) Cortex / ED 50 (μg) Spinal Cord: single ICV bolus, GraphPad Prism 10
Method: Modified oligonucleotides described above were tested in the APOE C57BL/6NTac-Apoeem7250 knock-in mouse model described above.
APOE C57BL/6NTac-Apoeem7250 knock-in mice were divided into groups of 3-4 mice each. A group of 3-4 mice received a single ICV bolus with PBS as a negative control.
Four weeks post treatment, mice were sacrificed, and RNA was extracted from cortical brain tissue and spinal cord for quantitative real-time RT-PCR analysis of RNA expression of […] using human primer probe set RTS3073 (described herein above). APOE RNA levels were normalized to mouse Ppia. Mouse Ppia was amplified using primer probe set m_cyclo24 (described herein above). Results are presented as percent human APOE RNA relative to the amount of APOE RNA in PBS treated animals, (% control). N.C. indicates values that were not calculated. Each experiment is identified in separate tables below.
The half maximal effective dose (ED50) of each modified oligonucleotide was calculated using GraphPad Prism 10 software (GraphPad Software, San Diego, CA).

human APOE RNA [5] = assay: Dose-dependent inhibition of human APOE RNA in differentiated SH-SY5Y cells, free uptake, 5 days (Example 5); format: cell-based; conditions: 5 days (Table 14)
Summary of the method: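 Differentiated SH-SY5Y cells (10,000/well) treated by free uptake with graded oligonucleotide concentrations for 5 days. APOE RNA quantified with primer probe set RTS3073, normalized to PPIA, expressed as % untreated control; IC50 calculated.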

Substance | APOE RNA (% UTC) (human APOE RNA [1]; 5 nM) | APOE RNA (% UTC) (human APOE RNA [1]; 13 nM) | APOE RNA (% UTC) (human APOE RNA [1]; 33 nM) | APOE RNA (% UTC) (human APOE RNA [1]; 82 nM) | APOE RNA (% UTC) (human APOE RNA [1]; 205 nM) | APOE RNA (% UTC) (human APOE RNA [1]; 512 nM) | APOE RNA (% UTC) (human APOE RNA [1]; 1,280 nM) | APOE RNA (% UTC) (human APOE RNA [1]; 3,200 nM) | APOE RNA (% UTC) (human APOE RNA [1]; 8,000 nM) | APOE RNA (% UTC) (human APOE RNA [1]; 20,000 nM) | IC50 (human APOE RNA [1]) | APOE RNA (% control) Cortex (human APOE RNA [2]) | APOE RNA (% control) Spinal Cord (human APOE RNA [2]) | APOE RNA (% control) Cortex (human APOE RNA [3]) | APOE RNA (% control) Spinal Cord (human APOE RNA [3]) | APOE RNA (% control) Cortex (human APOE RNA [4]; ICV dose 10 μg) | APOE RNA (% control) Cortex (human APOE RNA [4]; ICV dose 30 μg) | APOE RNA (% control) Cortex (human APOE RNA [4]; ICV dose 100 μg) | APOE RNA (% control) Cortex (human APOE RNA [4]; ICV dose 300 μg) | APOE RNA (% control) Cortex (human APOE RNA [4]; ICV dose 700 μg) | further results
1778130: modified oligonucleotide complementary to human APOE RNA (eA*e[5mC]eTeTeG*kG*dT*dG[ms]dA[ms]dA*dT*d[5mC]*dT*dT*dT*dA[ms]kTkT*eA*eA; antisense) [compound 1778130] | 99 % UTC | 100 % UTC | 85 % UTC | 72 % UTC | 52 % UTC | 45 % UTC | 20 % UTC | 12 % UTC | 18 % UTC | 9 % UTC | 310 nM | 31 % control | 34 % control | 23 % control | 18 % control | 123 % control | 100 % control | 69 % control | 74 % control | 37 % control | ED 50 (μg) Cortex (human APOE RNA [4]): 502.4 µg; APOE RNA (% control) Spinal Cord (human APOE RNA [4]; ICV dose 10 μg): 88 % control; APOE RNA (% control) Spinal Cord (human APOE RNA [4]; ICV dose 30 μg): 35 % control; APOE RNA (% control) Spinal Cord (human APOE RNA [4]; ICV dose 100 μg): 27 % control; APOE RNA (% control) Spinal Cord (human APOE RNA [4]; ICV dose 300 μg): 22 % control; APOE RNA (% control) Spinal Cord (human APOE RNA [4]; ICV dose 700 μg): 32 % control; ED 50 (μg) Spinal Cord (human APOE RNA [4]): 35.9 µg; APOE RNA (% UTC) (human APOE RNA [5]; 5 nM): 78 % UTC; APOE RNA (% UTC) (human APOE RNA [5]; 13 nM): 75 % UTC; APOE RNA (% UTC) (human APOE RNA [5]; 33 nM): 75 % UTC; APOE RNA (% UTC) (human APOE RNA [5]; 82 nM): 51 % UTC; APOE RNA (% UTC) (human APOE RNA [5]; 205 nM): 54 % UTC; APOE RNA (% UTC) (human APOE RNA [5]; 512 nM): 56 % UTC; APOE RNA (% UTC) (human APOE RNA [5]; 1,280 nM): 51 % UTC; APOE RNA (% UTC) (human APOE RNA [5]; 3,200 nM): 31 % UTC; APOE RNA (% UTC) (human APOE RNA [5]; 8,000 nM): 24 % UTC; APOE RNA (% UTC) (human APOE RNA [5]; 20,000 nM): 12 % UTC; IC50 (human APOE RNA [5]): 370 nM
1778131: modified oligonucleotide complementary to human APOE RNA (eA*e[5mC]eTeTeGkG*dT*dG[ms]dA[ms]dA*dT*d[5mC]*dT*dT*dT*dA[ms]kTkT*eA*eA; antisense) [compound 1778131] | 102 % UTC | 86 % UTC | 85 % UTC | 70 % UTC | 56 % UTC | 36 % UTC | 25 % UTC | 25 % UTC | 5 % UTC | 6 % UTC | 290 nM | 29 % control | 49 % control | 29 % control | 24 % control | 115 % control | 105 % control | 61 % control | 37 % control | 29 % control | ED 50 (μg) Cortex (human APOE RNA [4]): 216.5 µg; APOE RNA (% control) Spinal Cord (human APOE RNA [4]; ICV dose 10 μg): 79 % control; APOE RNA (% control) Spinal Cord (human APOE RNA [4]; ICV dose 30 μg): 64 % control; APOE RNA (% control) Spinal Cord (human APOE RNA [4]; ICV dose 100 μg): 36 % control; APOE RNA (% control) Spinal Cord (human APOE RNA [4]; ICV dose 300 μg): 40 % control; APOE RNA (% control) Spinal Cord (human APOE RNA [4]; ICV dose 700 μg): 34 % control; ED 50 (μg) Spinal Cord (human APOE RNA [4]): 94.0 µg; APOE RNA (% UTC) (human APOE RNA [5]; 5 nM): 69 % UTC; APOE RNA (% UTC) (human APOE RNA [5]; 13 nM): 103 % UTC; APOE RNA (% UTC) (human APOE RNA [5]; 33 nM): 89 % UTC; APOE RNA (% UTC) (human APOE RNA [5]; 82 nM): 69 % UTC; APOE RNA (% UTC) (human APOE RNA [5]; 205 nM): 64 % UTC; APOE RNA (% UTC) (human APOE RNA [5]; 512 nM): 31 % UTC; APOE RNA (% UTC) (human APOE RNA [5]; 1,280 nM): 45 % UTC; APOE RNA (% UTC) (human APOE RNA [5]; 3,200 nM): 55 % UTC; APOE RNA (% UTC) (human APOE RNA [5]; 8,000 nM): 25 % UTC; APOE RNA (% UTC) (human APOE RNA [5]; 20,000 nM): 12 % UTC; IC50 (human APOE RNA [5]): 690 nM
1785598: modified oligonucleotide complementary to human APOE RNA (k[5mC]*kT*kT*dG[ms]dG[ms]dT[ms]dG[ms]dA[ms]dA[ms]dT*d[5mC]*dT*dT*dT*dA*dT[ms]kT*kA*dA[ms]kA; antisense) [compound 1785598] | 103 % UTC | 97 % UTC | 88 % UTC | 75 % UTC | 56 % UTC | 36 % UTC | 23 % UTC | 9 % UTC | 11 % UTC | 11 % UTC | 290 nM | 29 % control | 40 % control | 23 % control | 16 % control | 104 % control | 84 % control | 60 % control | 37 % control | 23 % control | ED 50 (μg) Cortex (human APOE RNA [4]): 175.4 µg; APOE RNA (% control) Spinal Cord (human APOE RNA [4]; ICV dose 10 μg): 97 % control; APOE RNA (% control) Spinal Cord (human APOE RNA [4]; ICV dose 30 μg): 70 % control; APOE RNA (% control) Spinal Cord (human APOE RNA [4]; ICV dose 100 μg): 65 % control; APOE RNA (% control) Spinal Cord (human APOE RNA [4]; ICV dose 300 μg): 60 % control; APOE RNA (% control) Spinal Cord (human APOE RNA [4]; ICV dose 700 μg): 41 % control; ED 50 (μg) Spinal Cord (human APOE RNA [4]): 416.7 µg; APOE RNA (% UTC) (human APOE RNA [5]; 5 nM): 72 % UTC; APOE RNA (% UTC) (human APOE RNA [5]; 13 nM): 59 % UTC; APOE RNA (% UTC) (human APOE RNA [5]; 33 nM): 90 % UTC; APOE RNA (% UTC) (human APOE RNA [5]; 82 nM): 57 % UTC; APOE RNA (% UTC) (human APOE RNA [5]; 205 nM): 59 % UTC; APOE RNA (% UTC) (human APOE RNA [5]; 512 nM): 39 % UTC; APOE RNA (% UTC) (human APOE RNA [5]; 1,280 nM): 23 % UTC; APOE RNA (% UTC) (human APOE RNA [5]; 3,200 nM): 23 % UTC; APOE RNA (% UTC) (human APOE RNA [5]; 8,000 nM): 9 % UTC; APOE RNA (% UTC) (human APOE RNA [5]; 20,000 nM): 11 % UTC; IC50 (human APOE RNA [5]): 180 nM
